≈ marks a conversion by molar mass, not a printed value. Blank lines part the entries; values can stand above or below the compound they belong to.
Experiments:
[1] = system: S. aureus 1466; assay: Antibacterial activity test (MIC, MBC, growth curve); format: cell-based, Staphylococcus aureus; conditions: Staphylococcus aureus, S. aureus 1466, mean ± SD of three independent experiments
Method: (§1) All bacteria strains were obtained from the Thailand Institute of Scientific and Technological Research (TISTR). The antibacterial activity of chalcones 3a–f was determined by the minimal inhibitory concentration (MIC) and the minimal bactericidal concentration (MBC) against the Gram-positive (S. aureus 1466, TISTR 1466) and Gram-negative (E.coli 780, TISTR 780) bacteria. The stocks of chalcones 3a–f (0.60 mg/mL) were serially diluted in Muller–Hinton (MH) broth to obtain concentrations in the range of 250–1000 µM. The solutions of chalcones 3a–f (100 µL) at different concentrations were added in the culture of the tested bacteria (100 µL) at a concentration of 1 × 10^6 colony-forming units/mL (CFU/mL) in MH broth at 37 °C with shaking at 80 rpm. The bacterial numbers were determined by measuring the optical density at 600 nm by a UV–Vis spectrometer. […] To determine the MBC values, the bacterial cultures (10 µL) containing the solutions of chalcones 3a–f at MIC and three higher concentrations were dropped on MH agar plates.

[2] = Photo-stability test (photobleaching under 250 W blue light); format: physicochemical; conditions: DMSO, 250 W blue light (380–500 nm), after 30 min irradiation
Method: Chalcones 3a–f were dissolved in DMSO at the final concentration of 1 × 10^−6 M for measuring absorption and emission intensity. Then, 3a–f were irradiated at 250 W (blue-lamp) at a distance of 75 cm. The UV–Visible absorption and fluorescence spectra of the solutions were measured at different time points including 0, 1, 5, 10, 15, 20, and 30 min. Photo-stability was reported in terms of photobleaching absorption and emission (%) calculated from the change of absorption and emission intensity at the absorption and emission maxima before and after irradiation.

[3] = Photophysical properties (UV–Vis absorption and fluorescence spectra); format: physicochemical; conditions: for λabs absorption maximum wavelength / ∆λ stokes shifts (λem − λabs) / λem emission maximum wavelength / Φf fluorescence quantum yields: 2 µM; for λem emission maximum wavelength: excited at the maximum absorption wavelength; for Φf fluorescence quantum yields: n = 3, relative to fluorescein in 0.1 M NaOH
Method: All UV–Vis absorption and fluorescence spectra were recorded on a UV–Vis Spectrophotometer (Agilent Technologies Cary 300, Santa Clara, CA, USA) and a Spectrofluorometer (PerkinElmer LS55, Waltham, MA, USA), respectively. In both experiments, the stock solutions of chalcones 3a–f were prepared as 0.5 mM in DMSO. The appropriate amount of the stock solution was added to DMSO, MeOH, and 0.01 M PBS buffer (pH 7.4) with 3% Tween 80 (3 mL) to obtain the final concentration of 2 µM in the testing solutions. For fluorescence experiments, the emission spectra were recorded at the maximum absorbance wavelength of each compound. The fluorescent quantum yields (Φf) were calculated relative to fluorescein in 0.1 M NaOH as a standard (Φf = 0.95).

[4] = system: E. coli 780; assay: Antibacterial activity test (MIC, MBC, growth curve); format: cell-based, Escherichia coli; conditions: Escherichia coli, E. coli 780, mean ± SD of three independent experiments
Method: as §1

[5] = pH effect on fluorescence emission; format: physicochemical; conditions: pH range from 2 to 12, 2 µM, 3% Tween 80
Method: Chalcones 3a–f (2 µM) were dissolved in commercial pH 1–12 buffers purchased from Merck (St. Louis, MO, USA) (glycine/NaCl/HCl for pH 1, citric acid/NaOH/HCl for pH 2–6, Na2HPO4/KH2PO4 for pH 7, boric acid/ KCl/NaOH for pH 8–11, Na3PO4/NaOH for pH 12) in the presence of Tween 80 (3% w/w). The actual pH values of the final buffer solutions were measured by a pH meter. The resulting solutions were examined by a Spectrofluorometer (PerkinElmer LS55) at the maximum absorbance wavelength of each compound.

[6] = system: HepG2; assay: Cell viability MTT assay, cancer cells; format: cell-based; conditions: Homo sapiens; HepG2, 24 h, MTT; read-out: IC50
Method: (§2) For fluorescence imaging of living cells, human embryonic kidney 293 (HEK-293, ATCC) and human hepatoma cancer cell (HepG2, ATCC) were cultured in Dulbecco′s Modified Eagle′s Medium (DMEM, HyClone) supplemented with 10% Fetal Bovine Serum (FBS, Gibco, Carlsbad, CA, USA) and 1% Penicillin/Streptomycin Solution 100X (Corning, Corning, NY, USA). All cells were cultured in a humidified incubator at 37 °C with 5% CO2. HEK-293 and HepG2 cells, approximately 1 × 10^4 cells, were seeded on 8-well chambered cover glasses (LabTek, Nunc, Carlsbad, CA, USA) and incubated in complete medium for 24 h. After that, the cells were treated with 5 μM stock solutions of 3a–f in DMSO/cell culture medium containing 10% FBS (0.25% DMSO), for 0, 1, 3, and 6 h. Then, the cells were washed twice with 0.01 M PBS before being visualized under a Laser-Scanning Confocal Microscope (Nikon A1Rsi) with a 60× oil immersion objective lens and living cell workstation with the excitation channel at 488 nm.
(§3) The cells were seeded on a 96-well plate, approximately 7 × 10^3 cells per well, and incubated in complete medium for 24 h. After that, the cells were treated with 0, 1, 5, 10, 20, and 50 μM of chalcones 3a–f, and culturing continued for 24 h. After incubation, the cells were washed three times with 10 mM PBS and treated with […] of methylthiazolyldiphenyl-tetrazolium bromide (MTT reagent, 0.5 mg mL^−1, Sigma-Aldrich, St. Louis, MO, USA) for 2–3 h. After medium removal, DMSO was added to dissolve the formazan product, and cell viability was determined by UV–Vis absorption of the resulting formazan at a wavelength of 560 nm in a microplate reader (BMG Labtech/SPECTROstar Nano, Ortenberg, Germany).

[7] = system: HEK-293; assay: Cell viability MTT assay, normal cells; format: cell-based; conditions: Homo sapiens, HEK293; HEK-293, 24 h, MTT; read-out: IC50
Method: as §2, §3

[8] = 0.1 M NaOH, used as standard; no reference given; cited from earlier work

MIC ([1]; read-out: MIC): 375 ± 0.01 µM (≈ 99.9 µg/mL) | % photobleaching of absorbance [2]: 48% | % photobleaching of fluorescence [2]: 47% | ε molar absorptivity ([3]; DMSO): 35000 M⁻¹ cm⁻¹ | λabs absorption maximum wavelength ([3]; DMSO): 412 nm | ∆λ stokes shifts (λem − λabs) ([3]; DMSO): 100 nm | λem emission maximum wavelength ([3]; DMSO): 512 nm | Φf fluorescence quantum yields ([3]; DMSO): 0.21 ± 0.03 | ε molar absorptivity ([3]; MeOH): 31000 M⁻¹ cm⁻¹ | λabs absorption maximum wavelength ([3]; MeOH): 414 nm | ∆λ stokes shifts (λem − λabs) ([3]; MeOH): 135 nm | λem emission maximum wavelength ([3]; MeOH): 549 nm | Φf fluorescence quantum yields ([3]; MeOH): 0.027 ± 0.011 | ε molar absorptivity ([3]; PBS (3%w/w tween 80)): 34000 M⁻¹ cm⁻¹ | λabs absorption maximum wavelength ([3]; PBS (3%w/w tween 80)): 412 nm | ∆λ stokes shifts (λem − λabs) ([3]; PBS (3%w/w tween 80)): 112 nm | λem emission maximum wavelength ([3]; PBS (3%w/w tween 80)): 524 nm | Φf fluorescence quantum yields ([3]; PBS (3%w/w tween 80)): 0.18 ± 0.02 | MIC ([4]; read-out: MIC): 375 ± 0.01 µM (≈ 99.9 µg/mL) | fluorescence emission [5]: Higher emission peaks | IC50 [6]: 54 µM
Compound: CN(C)c1ccc(/C=C/C(=O)c2ccc(N)cc2)cc1 [3f]
MBC ([1]; read-out: MBC): 1000 ± 0.04 µM (≈ 266 µg/mL) | MBC ([4]; read-out: MBC): 750 ± 0.01 µM (≈ 200 µg/mL) | IC50 [7]: > 100 µM

Compound: O=C1OC2(c3ccc(O)cc3Oc3cc(O)ccc32)c2ccccc21 [fluorescein]
Φf fluorescent quantum yield of the standard [8]: 0.95

From PMC8156934, “Photophysical Study and Biological Applications of Synthetic Chalcone-Based Fluorescent Dyes” (Molecules, 2021)
